The values below are quoted from earlier work in US7223777B2, “Compounds for the management of aging-related and diabetic vascular complications, process for their preparation, therapeutic and cosmetic uses thereof” (Torrent Pharmaceuticals Ltd., priority 2001, dated 2007).

Each structure is given as a SMILES string.

Series [1] deals with diabetic rats. The following applies: cited from earlier work.
The test system of series [2] is diabetic retinopathy in rat model. The conditions noted are these: rat model (Hammes 1991, 1994; Roufail 1998); cited from earlier work.
For series [3], the system named is diabetic rats. The following applies: diabetic rats (Kihara 1991, Miyauchi 1996, Yagihashi 1992); cited from earlier work.
The subject of another series is old rats. The conditions noted are these: aging rats (Li et al 1996); cited from earlier work.

Regarding `N=C(N)NN` [aminoguanidine], the “development of diabetic nephropathy” value in the series with diabetic rats [1] (Yamauchi (1997)) was “inhibits development of diabetic nephropathy”. In the series with diabetic rats [1] (diabetic rats (Ellis 1991)), the “thickening of glomerular basement membrane” value was “ameliorate thickening of glomerular basement membrane”. Moreover, the rise in albuminuria result in the series on diabetic rats [1] (experimental diabetic rats (Soulis-Liparota, 1991)) is reported as “attenuate the rise in albuminuria”. For the same molecule, in series [2], the “progression of diabetic retinopathy” value is on record as “retard progression of diabetic retinopathy”. Moreover, in the series with diabetic rats [3], the nerve conduction velocity result is recorded as “improve nerve conduction velocity”. For the same molecule, in the series with old rats, the tissue damage entry is given as “significantly prevent tissue damage”.
